Reference: EPA's aquatic toxicity sets

Test system: Daphnia magna
Test: 48 h LC50 (-log10 mol/L); higher = more toxic

Row | SMILES | 48 h LC50 (-log10 mol/L)
1 | c1ccc2cnccc2c1 | 3.71
2 | CC1=CC(=O)C(C)=C(C)C1=O | 5
3 | CCOc1ccc2c(c1)C(C)=CC(C)(C)N2 | 5.04
4 | CCOP(=O)(NC(C)C)Oc1ccc(SC)c(C)c1 (stereo not drawn) | 8.11
5 | Clc1ccc(-c2ccc(Cl)cc2Cl)cc1 | 6.21
6 | O=c1cc[nH]c(=S)[nH]1 | 4.22
7 | CC(F)(Cl)Cl | 3.58
8 | CCCC1O[C@@H]2C[C@H]3[C@@H]4CCC5=CC(=O)C=C[C@]5(C)[C@H]4[C@@H](O)C[C@]3(C)[C@]2(C(=O)CO)O1 (stereo partly drawn) | 4.33
9 | Nc1nc(N)c2nc(-c3ccccc3)c(N)nc2n1 | 4.4
10 | CCCCNC(=O)OCC#CI | 6.85
11 | O=S1OC[C@@H]2[C@H](CO1)[C@]1(Cl)C(Cl)=C(Cl)[C@@]2(Cl)C1(Cl)Cl (stereo partly drawn) | 6.08
12 | COc1ccccc1OCCNCC(O)COc1cccc2[nH]c3ccccc3c12 (stereo not drawn) | 5.13
13 | Fc1ccc([C@@]2(Cn3cncn3)O[C@@H]2c2ccccc2Cl)cc1 | 4.58
14 | c1ccc2cc3c(ccc4ccccc43)cc2c1 | 6.22
15 | CC1(C)[C@H](C(=O)O[C@H](C#N)c2cccc(Oc3ccccc3)c2)[C@@H]1C(Br)C(Br)(Br)Br (stereo partly drawn) | 9.95
16 | Clc1ccc(-c2ccc(Cl)c(Cl)c2Cl)c(Cl)c1Cl | 8.78
17 | Fc1ccc([C@@H]2CCNC[C@H]2COc2ccc3c(c2)OCO3)cc1 | 5.75
18 | O[C@@H](CS)[C@@H](O)CS | 3.76
19 | C1CCCC1 | 3.81
20 | CNC(=S)N(C)C | 2.19
21 | CN(C)C(=S)SSC(=S)N(C)C | 6.06

Row | SMILES | 48 h LC50 (-log10 mol/L)
22 | CCCN(CCC)C(=S)SSC(=S)N(CCC)CCC | 6.19
23 | CC(Cc1ccc(C(C)(C)C)cc1)CN1CCCCC1 (stereo not drawn) | 5.72
24 | CC(C)(C)[C@H](O)[C@H](Cc1ccc(Cl)cc1)n1cncn1 | 4.01
25 | CN(C)[C@@H]1C(=O)C(C(N)=O)=C(O)[C@@]2(O)C(=O)C3=C(O)c4c(O)ccc(Cl)c4[C@@](C)(O)[C@H]3C[C@@H]12 | 3.57
26 | N/C(=N\N=C\c1ccc(Cl)cc1)N/N=C/c1ccc(Cl)cc1 | 6.65
27 | CCNC(=S)Nc1ccccc1 | 3.35
28 | CC(C)(C)CC(C)(C)c1ccc(O)cc1 | 6.36
29 | CCCCCOC(=O)Nc1nc(=O)n([C@@H]2O[C@H](C)[C@@H](O)[C@H]2O)cc1F | 2.63
30 | CN(C)c1nc(=O)n(C2CCCCC2)c(=O)n1C | 3.22
31 | COc1ccc(NC(=O)N(C)C)cc1Cl | 3.15
32 | Clc1ccc(-c2ccccc2)cc1 | 5.63
33 | COC1=CC(=O)C[C@@H](C)[C@]12Oc1c(Cl)c(OC)cc(OC)c1C2=O | 2.51
34 | CN(C)C(=S)N(C)C | 2.23
35 | BrC=C(Br)Br | 4.33
36 | CCOP(=S)(OCC)OP(=S)(OCC)OCC | 9.15
37 | COC(=O)c1ccccc1C(=O)OC | 3.77
38 | COc1ccccc1 | 3.43
39 | CC(=O)Oc1c(C)cc(OCC(O)CNC(C)C)c(C)c1C (stereo not drawn) | 3.92
40 | CSc1nc(N)nc(NC(C)(C)C)n1 | 4.29
41 | FCC(F)(F)F | 2.02
42 | CC(=O)CC(c1ccccc1)c1c(O)c2ccccc2oc1=O (stereo not drawn) | 2.96

Row | SMILES | 48 h LC50 (-log10 mol/L)
43 | Cc1c(OCC(F)(F)F)ccnc1CS(=O)c1nc2ccccc2[nH]1 (stereo not drawn) | 4.22
44 | ClCCOCCCl | 2.78
45 | ClC1=C(Cl)[C@]2(Cl)[C@@H]3[C@@H](Cl)[C@H]4O[C@H]4[C@@H]3[C@@]1(Cl)C2(Cl)Cl | 6.21
46 | BrC1CCCCC1 | 3.89
47 | CC1(C)C(C=C(Cl)Cl)C1C(=O)OCc1cccc(Oc2ccccc2)c1 (stereo not drawn) | 8.07
48 | ClC=CCCl | 4.32
49 | Cc1cc(Cl)ccc1OCC(=O)O | 3.05
50 | CO/C=C(/C(=O)OC)c1ccccc1Oc1cc(Oc2ccccc2C#N)ncn1 | 6.39
51 | O=[N+]([O-])c1ccc(Oc2c(Cl)cc(Cl)cc2Cl)cc1 | 5.88
52 | COP(=O)(NC(C)=O)SC (stereo not drawn) | 4.11
53 | CC(C)N(C(=O)SCC(Cl)=C(Cl)Cl)C(C)C | 6.46
54 | COc1c(C(C)(C)C)cc([N+](=O)[O-])c(C)c1[N+](=O)[O-] | 5.64
55 | CCc1nc(N)nc(N)c1-c1ccc(Cl)cc1 | 4.63
56 | N#Cc1ncccn1 | 3.34
57 | ClCC1CO1 (stereo not drawn) | 3.59
58 | Cc1nc2n(c(=O)c1CCN1CCC(c3noc4cc(F)ccc34)CC1)CCCC2 | 4.83
59 | Nc1cc(Cl)c(Cl)c(Cl)c1Cl | 5.56
60 | Nc1cccc(Cl)c1 | 6.11
61 | ClCC(Cl)(Cl)Cl | 3.84
62 | CCCOC(=O)NCCCN(C)C | 3.25
63 | c1ccc2c(c1)cc1ccc3cccc4ccc2c1c34 | 6

Row | SMILES | 48 h LC50 (-log10 mol/L)
64 | CCCN(CCC)C(=O)SCC | 4.61
65 | CC(C)(Oc1ccc(Cl)cc1)C(=O)O | 3.47
66 | C[C@]12C=CC(=O)C=C1C(Cl)=C[C@@H]1[C@@H]2[C@@H](O)C[C@@]2(C)[C@H]1CC[C@]2(O)C(=O)CO | 3.96
67 | Nc1nc(=S)c2[nH]cnc2[nH]1 | 4.01
68 | O=S1c2ccccc2-c2ccccc21 | 4
69 | N#CSCSC#N | 6.25
70 | CC1(C)[C@@H]2CC[C@@]1(C)[C@H](OC(=O)CSC#N)C2 | 6.47
71 | c1ccc(NNc2ccccc2)cc1 | 4.65
72 | Cc1nc(N(C)C)nc(OC(=O)N(C)C)c1C | 7.04
73 | CC[C@H]1OC(=O)[C@H](C)[C@@H](O[C@H]2C[C@@](C)(OC)[C@@H](O)[C@H](C)O2)[C@H](C)[C@@H](O[C@@H]2O[C@H](C)C[C@H](N(C)C)[C@H]2O)[C@](C)(O)C[C@@H](C)CN(C)[C@H](C)[C@@H](O)[C@]1(C)O | 3.79
74 | NNC(=O)c1ccncc1 | 3.77
75 | Cc1ccc(C(C)C)cc1 | 4.32
76 | c1ccc2c(c1)sc1ccccc12 | 5.6
77 | CC[C@H]1OC(=O)[C@H](C)[C@@H](O[C@H]2C[C@@](C)(OC)[C@@H](O)[C@H](C)O2)[C@H](C)[C@@H](O[C@@H]2O[C@H](C)C[C@H](N(C)C)[C@H]2O)[C@](C)(O)C[C@@H](C)C(=O)[C@H](C)[C@@H](O)[C@]1(C)O | 3.28
78 | CN=C=S | 5.42
79 | CC(C)CCCCCCCCCCN(CCCCCCCCCCC(C)C)CCCCCCCCCCC(C)C | 5.96
80 | CC(C)CCCCCCCOP(=O)(Oc1ccccc1)Oc1ccccc1 | 7.1
81 | CC/C(=C(/CC)c1ccc(O)cc1)c1ccc(O)cc1 | 5.37
82 | CN/C(=C\[N+](=O)[O-])NCCSCc1ccc(CN(C)C)o1 | 2.69
83 | CCN(CC)C(=S)SSC(=S)N(CC)CC | 5.98
